Drawing on US11465994B2, “MGluR7 agonist compounds for treating mGluR7-regulated diseases, disorders, or conditions” (Takeda Pharmaceutical Company Limited, priority 2016, dated 2022), this text covers EC50 for 38 compounds.

In general, EC50 refers to the concentration that produces a half-maximal response.

Sequence of mGluR7 (Q14831 35-915): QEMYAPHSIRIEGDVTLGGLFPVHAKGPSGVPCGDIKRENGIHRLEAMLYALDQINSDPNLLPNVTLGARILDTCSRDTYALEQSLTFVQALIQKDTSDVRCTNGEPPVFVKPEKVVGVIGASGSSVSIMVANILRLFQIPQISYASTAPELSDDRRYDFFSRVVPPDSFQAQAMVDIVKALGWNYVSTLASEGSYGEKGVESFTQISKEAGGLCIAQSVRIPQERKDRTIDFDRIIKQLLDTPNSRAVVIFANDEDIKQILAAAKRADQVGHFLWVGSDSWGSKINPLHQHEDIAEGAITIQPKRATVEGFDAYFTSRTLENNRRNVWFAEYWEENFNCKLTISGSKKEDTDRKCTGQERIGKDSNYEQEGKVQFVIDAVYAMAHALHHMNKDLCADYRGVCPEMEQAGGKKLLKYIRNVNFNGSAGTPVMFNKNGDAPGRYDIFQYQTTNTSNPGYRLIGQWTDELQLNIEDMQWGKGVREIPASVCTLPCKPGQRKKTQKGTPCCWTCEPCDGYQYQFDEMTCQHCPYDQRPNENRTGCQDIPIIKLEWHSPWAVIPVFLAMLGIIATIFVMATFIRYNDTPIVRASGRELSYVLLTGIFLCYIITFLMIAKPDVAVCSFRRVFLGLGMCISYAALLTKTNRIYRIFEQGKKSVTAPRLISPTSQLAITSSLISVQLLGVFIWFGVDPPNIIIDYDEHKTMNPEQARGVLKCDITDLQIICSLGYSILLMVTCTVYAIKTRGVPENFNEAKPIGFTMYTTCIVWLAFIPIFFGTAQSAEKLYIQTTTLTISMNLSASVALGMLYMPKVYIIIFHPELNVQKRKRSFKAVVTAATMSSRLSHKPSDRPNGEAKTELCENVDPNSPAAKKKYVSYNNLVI

This experiment addresses mGluR7 (Homo sapiens, UniProt Q14831). Kind of experiment: cAMP CRE-luciferase reporter gene assay (Steady Glo) in CHO-CRE-luc cells stably expressing human mGluR7. The class given is cell-based. The arrangement: expressed in transfected cells. The following applies: reduction of forskolin stimulated cAMP (luminescence); CHO CRE-luc human mGluR7; read-out: EC50. On the procedure: Compound activities were determined in CHO-CRE-luc cells stably expressing hu/mo mGluR7, using a cAMP reporter gene assay (Steady Glo, Promega). Selectivity was assessed in stable CHO-mGluR4 cells (DiscoverX) and CHO-mGluR8 transients using an HTRF cAMP assay (Cisbio).
The ability of the test compounds to activate mGluR7 was determined by their ability to reduce forskolin stimulated cAMP production. Compounds were assessed in a CRE-directed luciferase reporter gene assay, using a stable CHO cell line expressing the CRE-luc reporter and human mGluR7 genes. In this cell line, production of cAMP stimulated the transcription of the luciferase gene and luciferase activity was then measured in a luminescent enzyme assay (Steady Glo assay; Promega E2550). Activation of mGluR7 decreased the forskolin stimulated luminescence signal.
The day prior to the assay, compounds were serially diluted in DMSO (100× final assay concentration (FAC)), in 384-well plates which were then stored in the dark at room temperature (RT) until use. Cells were seeded at 12.5 k/well in white, clear bottom 384-well plates (Corning 3707) and left for one hour at RT followed by an overnight incubation (37° C.). The following day, the DMSO compound plate was diluted 1:20 (5×FAC) in Opti-MEM I (Life Technologies 11058021). The growth media was removed from the cell plate and replaced with 15 μl Opti-MEM I, followed by a 5 μl addition from the 5× compound plate and a fifteen minute incubation (37° C.). Forskolin (Sigma F3917) was then added to the wells (5 μl of 2.5 μM) and the plate was incubated for five hours (37° C.). During this incubation, the Steady Glo Substrate reagent was warmed to 37° C. Aliquots (11 ml; stored at −20° C.) of this reagent were prepared by dissolving the contents of 1 vial of lyophilised substrate in 100 ml Steady-Glo buffer. A 25 μl addition of the substrate was made to all wells and the plate was incubated for thirty minutes at RT, on a plate shaker (300 rpm; in the dark). Luminescence was then measured using the EnVision Multilabel Reader (Perkin Elmer).
Compound activity was examined using a 10-point, half log concentration-response range and each concentration was tested in duplicate wells. Luminescence values were normalised to ‘maximum’ (forskolin alone) and ‘minimum’ (forskolin in the presence of tool mGluR7 agonist) controls.
A general note: In a reporter assay the amount or activity of a reporter protein is the signal.
For `CNC(=O)c1ccccc1C(=O)NC1c2ccccc2OCC1NC(=O)[C@@H](C)c1ccc(F)cc1` (single isomer, unassigned) [Example 33], the EC50 came out at 700 nM.

For `COC1c2ccccc2OCC1NC(=O)[C@@H]1c2ccccc2CC(=O)N1CC1CC1` (single isomer, unassigned) [Example 18], the 50% effective concentration (EC50) amounted to 15 nM.

Take `CO[C@@H]1c2ccccc2OC[C@H]1NC(=O)C1c2ccccc2CC(=O)N1CC1CCOCC1` (relative stereo) [Example 28, N-((trans)-4-methoxy-3,4-dihydro-2H-1-benzopyran-3-yl)-2-[(oxan-4-yl)methyl]-3-oxo-1,2,3,4-tetrahydroisoquinoline-1-carboxamide]: the EC50 was 14 nM.

On to `CO[C@@H]1c2ccccc2OC[C@H]1NC(=O)C(c1ccc(F)cc1F)N1CC(OC(F)(F)F)C1` (relative stereo) [Example 25, 2-(2,4-difluorophenyl)-N-((trans)-4-methoxy-3,4-dihydro-2H-1-benzopyran-3-yl)-2-[3-(trifluoromethoxy)azetidin-1-yl]acetamide], for which the EC50 was 27 nM.

For the compound `CO[C@@H]1c2ccccc2OC[C@H]1NC(=O)C(OCC1CC1)c1ccc(F)cc1` (relative stereo) [Example 30, 2-(cyclopropylmethoxy)-2-(4-fluorophenyl)-N-((trans)-4-methoxy-3,4-dihydro-2H-1-benzopyran-3-yl)acetamide], the EC50 turned out to be 11 nM.

For the compound `CO[C@@H]1c2ccccc2OC[C@H]1NC(=O)C(c1ccc(F)cc1)N1CC(OC(F)(F)F)C1` (relative stereo) [Example 24, 2-(4-fluorophenyl)-N-((trans)-4-methoxy-3,4-dihydro-2H-1-benzopyran-3-yl)-2-[3-(trifluoromethoxy)azetidin-1-yl]acetamide], the EC50 was 20 nM.

For the compound `COC1c2ccccc2OCC1NC(=O)[C@@H]1c2ccccc2CC(=O)N1CC1CC1` (single isomer, unassigned) [Example 19], the EC50 was found to be 6 nM.

`C[C@H](C(=O)NC1COc2ccccc2C1=O)c1ccccc1` (stereo partly drawn) [Example 4, (2S)—N-(4-oxo-3,4-dihydro-2H-1-benzopyran-3-yl)-2-phenylpropanamide]: the EC50 was 860 nM.

For the compound `C[C@H](C(=O)NC1COc2ccccc2C1N(C)C)c1ccc(F)cc1` (single isomer, unassigned) [Example 37], the EC50 came to 55 nM.

Consider `C[C@H](C(=O)NC1COc2ccc(F)cc2C1O)c1ccccc1` (stereo in doubt) [Example 3, (2S)—N-((cis)-6-fluoro-4-hydroxy-3,4-dihydro-2H-1-benzopyran-3-yl)-2-phenylpropanamide], for which the EC50 worked out at 1200 nM.

Regarding `C[C@H](C(=O)NC1COc2ccccc2C1O)c1ccccc1` (single isomer, unassigned) [Example 5], the EC50 was found to be 68 nM.

On to `CO[C@@H]1c2ccccc2OC[C@H]1NC(=O)C1c2ccccc2CC(=O)N1Cc1ccccn1` (relative stereo) [Example 29, N-((trans)-4-methoxy-3,4-dihydro-2H-1-benzopyran-3-yl)-3-oxo-2-[(pyridin-2-yl)methyl]-1,2,3,4-tetrahydroisoquinoline-1-carboxamide], for which the concentration giving a half-maximal response (EC50) was determined as 8 nM.

Regarding `C[C@H](C(=O)NC1COc2ccccc2C1S(C)(=O)=O)c1ccccc1` (single isomer, unassigned) [Example 13], the EC50 is 26 nM.

Turning to `COC1c2ccccc2OCC1NC(=O)[C@@H]1c2ccccc2CC(=O)N1CC1CC1` (stereo in doubt) [Example 15, (1S)-2-(cyclopropylmethyl)-N-((trans)-4-methoxy-3,4-dihydro-2H-1-benzopyran-3-yl)-3-oxo-1,2,3,4-tetrahydroisoquinoline-1-carboxamide], the EC50 was 14 nM.

On to `CO[C@@H]1c2ccccc2OC[C@H]1NC(=O)C(Oc1ccnc(C)n1)c1ccc(F)cc1F` (relative stereo) [Example 31, 2-(2,4-difluorophenyl)-N-((trans)-4-methoxy-3,4-dihydro-2H-1-benzopyran-3-yl)-2-[(2-methylpyrimidin-4-yl)oxy]acetamide], for which the EC50 came to 54 nM.

Turning to `COC1c2ccccc2OCC1NC(=O)[C@@H]1c2ccccc2CC(=O)N1CCCF` (single isomer, unassigned) [Example 26], the EC50 is 23 nM.

On to `C[C@H](C(=O)NC1COc2ccccc2C1S(C)(=O)=O)c1ccccc1` (single isomer, unassigned) [Example 12], for which the EC50 was determined as 7 nM.

Turning to `C[C@H](C(=O)NC1COc2ccccc2C1S(C)(=O)=O)c1ccc(F)cc1` (single isomer, unassigned) [Example 17], the EC50 is 28 nM.

Regarding `C[C@H](C(=O)NC1COc2ccccc2C1S(C)(=O)=O)c1ccc(Cl)cc1` (single isomer, unassigned) [Example 21], the EC50 was 33 nM.

With `C[C@H](C(=O)NC1COc2ccccc2C1O)c1ccccc1` (single isomer, unassigned) [Example 2], the EC50 was found to be 96 nM.

As for `CNC1c2ccccc2OCC1NC(=O)[C@@H](C)c1ccccc1` (stereo in doubt) [Example 14, (2S)—N-[(trans)-4-(methylamino)-3,4-dihydro-2H-1-benzopyran-3-yl]-2-phenylpropanamide], the EC50 worked out at 65 nM.

Turning to `C[C@H](C(=O)NC1COc2ccccc2C1S(C)(=O)=O)c1ccc(Cl)cc1` (single isomer, unassigned) [Example 20], the EC50 amounted to 10 nM.

Take `CNC1c2ccccc2OCC1NC(=O)[C@@H](C)c1ccc(F)cc1` (single isomer, unassigned) [Example 23]: the EC50 is 110 nM.

For `C[C@H](C(=O)NC1COc2ccccc2C1N1CCC(F)(F)C1)c1ccc(F)cc1` (single isomer, unassigned) [Example 38], the EC50 worked out at 30 nM.

Take `CNC1c2ccccc2OCC1NC(=O)[C@@H](C)c1ccccc1` (single isomer, unassigned) [Example 10]: the EC50 was found to be 1650 nM.

Take `CO[C@@H]1c2ccccc2OC[C@H]1NC(=O)C(c1ccc(F)cc1F)n1ccccc1=O` (relative stereo) [Example 32, 2-(2,4-difluorophenyl)-N-((trans)-4-methoxy-3,4-dihydro-2H-1-benzopyran-3-yl)-2-(2-oxo-1,2-dihydropyridin-1-yl)acetamide]: the EC50 worked out at 300 nM.

On to `C[C@H](C(=O)NC1COc2ccccc2C1O)c1ccccc1` (single isomer, unassigned) [Example 6], for which the EC50 came out at 101 nM.

As to `C[C@H](C(=O)NC1COc2ccccc2C1N1CCOCC1)c1ccc(F)cc1` (single isomer, unassigned) [Example 39], the EC50 came out at 23 nM.

Consider `COC1c2ccccc2OCC1NC(=O)[C@@H]1c2ccccc2CC(=O)N1CCCF` (single isomer, unassigned) [Example 27], for which the 50% effective concentration (EC50) was found to be 22 nM.

As for `C[C@H](C(=O)NC1COc2ccccc2C1(C)O)c1ccccc1` (single isomer, unassigned) [Example 8], the EC50 turned out to be 274 nM.

`C[C@H](C(=O)NC1COc2ccccc2C1O)c1ccccc1` (single isomer, unassigned) [Example 1]: the EC50 was determined as 874 nM.

For `CNC1c2ccccc2OCC1NC(=O)[C@@H](C)c1ccccc1` (single isomer, unassigned) [Example 9], the concentration giving a half-maximal response (EC50) was 4990 nM.

Take `CNC1c2ccccc2OCC1NC(=O)[C@@H](C)c1ccc(F)cc1` (single isomer, unassigned) [Example 22]: the EC50 was found to be 69 nM.

As for `COC1c2ccccc2OCC1NC(=O)[C@@H](C)c1ccccc1` (single isomer, unassigned) [Example 11], the EC50 is 55 nM.

Take `C[C@H](C(=O)NC1COc2ccccc2C1N1CCCC1)c1ccc(F)cc1` (single isomer, unassigned) [Example 35]: the EC50 was found to be 62 nM.

For the compound `C[C@H](C(=O)NC1COc2ccccc2C1N1CCC1)c1ccc(F)cc1` (single isomer, unassigned) [Example 36], the EC50 is 33 nM.

As for `C[C@H](C(=O)NC1COc2ccccc2C1(C)O)c1ccccc1` (single isomer, unassigned) [Example 7], the EC50 amounted to 911 nM.

For `CNC(=O)c1ccccc1C(=O)NC1c2ccccc2OCC1NC(=O)[C@@H](C)c1ccc(F)cc1` (single isomer, unassigned) [Example 34], the EC50 turned out to be 97 nM.
